# From US10028961B2, “Therapeutically active compounds and their methods of use” (AGIOS PHARMACEUTICALS, INC., priority 2013, dated 2018)
# pIC50: −log10 of the molar value.
# What was measured:
# [1] = test system: U87MG pLVX-IDH2 R140Q-neo cells; test: U87MG pLVX-IDH2 R140Q-neo cell based assay, 2-HG by LC-MS; conditions: Homo sapiens, U-87 MG
# [2] = test system: HT1080 cells; test: Cellular assay for IDH1m R132C inhibitors, 2-HG by LC-MS in HT1080 cells; type: cell-based; conditions: Homo sapiens, HT-1080
# How it was run: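 2-HG levels were measured by LC-MS in culture medium sampled 48 h after compound addition (0.2% DMSO) to HT1080 cells seeded overnight at 5000 cells/well. A CellTiter-Glo luminescence read at 72 h gave cell viability.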
# [3] = target: IDH1-R132 homodimer enzyme (R132H) (Homo sapiens (Human), UniProt O75874, R132H); test: In vitro assay IDH1-R132H homodimer, NADPH depletion assay; type: biochemical
# Protocol: (§1) The following describes the experimental procedures that can be used to obtain data on columns 3 and 6 of Table 4.
# (§2) A test compound is prepared as 10 mM stock in DMSO and diluted to 50× final concentration in DMSO, for a 50 μl reaction mixture. IDH enzyme activity converting alpha-ketoglutarate to 2-hydroxyglutaric acid is measured using a NADPH depletion assay. In the assay the remaining cofactor is measured at the end of the reaction with the addition of a catalytic excess of diaphorase and resazurin, to generate a fluorescent signal in proportion to the amount of NADPH remaining. […] The reaction is started with the addition of 10 μl of Substrate Mix ([…], 5 mM alpha-ketoglutarate, in Assay Buffer) and the mixture is incubated for 90 minutes at room temperature.
# [4] = target: IDH1 R132C (Homo sapiens (Human), UniProt O75874, R132C); test: In vitro assay IDH1 R132C homodimer, NADPH depletion assay; type: biochemical
# Protocol: as §1, §2
# The concentration of NADPH and alpha-ketoglutarate in the Substrate Buffer is 20 μM and 1 mM, respectively.
# [5] = target: T1, IDH2 R140Q (Homo sapiens (Human), UniProt P48735, R140Q); test: In vitro assay for IDH2m R140Q inhibitors, cofactor depletion assay; type: biochemical; conditions: IDH2 R140Q enzyme
# How it was run: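 Remaining cofactor measured fluorimetrically: diaphorase/resazurin Stop Mix […], halting the reaction. Before that, mutant enzyme and compound sat 1 h at RT, then substrate mix (4 μM NADPH, 1.6 mM α-KG) was added for 16 h at RT.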
# [6] = test system: Neurosphere cells (TS603); test: Cellular assay for IDH1m R132H inhibitors, 2-HG by LC-MS in neurosphere cells (TS603); type: cell-based; conditions: 2-HG in media at 48 hours
# How it was run: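 TS603 neurosphere cells in NeuroCult medium were dosed with compound (0.25% DMSO final) at 37 C, 5% CO2. After 48 hours, medium 2-HG was measured by LC-MS. At 72 hours, viability was read by CellTiter-Glo luminescence.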
# [7] = target: IDH1 wt/IDH1 R132H heterodimer (Homo sapiens (Human), UniProt O75874, R132H); test: In vitro assay for IDH1m R132H inhibitors, IDH1 wt/IDH1 R132H heterodimer, NADPH depletion (diaphorase/resazurin); type: biochemical; conditions: IDH1 wt/R132H heterodimer, NADPH/NADP, not saturated; read-out: IDH1 wt/R132H NADPH/NADP IC50 not saturated
# How it was run: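 Read-out is NADPH left after α-KG reduction to 2-HG, measured via resorufin fluorescence after 5 min diaphorase/resazurin step at 25° C. Enzyme is sf9-expressed IDH1wt-his/IDH1R132H-flag heterodimer, pre-incubated 1 hr at room temperature with compound and cofactor. IC50s from DMSO stocks diluted 1:50.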
# [8] = target: IDH1-R132H homodimer enzyme (Homo sapiens (Human), UniProt O75874, R132H); test: In vitro assay IDH1-R132H homodimer, NADPH depletion assay with NADPH/NADP preincubation; type: biochemical; conditions: 5 μM NADPH and 37.5 μM NADP
# How it was run: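 Compounds were added from DMSO at 50× final concentration, and the mutant enzyme was incubated 60 min at room temperature after starting with a substrate mix holding NADPH and 5 mM alpha-ketoglutarate. Residual cofactor, read by fluorescence after excess diaphorase and resazurin, reflects enzyme turnover.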
# [9] = target: IDH1-R132C homodimer enzyme (Homo sapiens (Human), UniProt O75874, R132C); test: In vitro assay IDH1-R132C homodimer, NADPH depletion assay with NADPH/NADP preincubation; type: biochemical; conditions: 5 uM NADPH and 28.75 uM NADP, read-out: IDH R132C NADPH/NADP IC50
# Protocol: The following describes the experimental procedures that can be used to obtain data on columns 3 and 5 of Table 5.
# as §2, with “60” for “90”
# The concentration of alpha-ketoglutarate in the Substrate Buffer is 1 mM.
# [10] = target: T1, IDH2 R140Q; test: In vitro assay for IDH2m R140Q inhibitors, cofactor depletion assay, 16 hr preincubation with NADPH/NADP; type: biochemical; conditions: read-out: IDH2 R140Q 16 hr NADPH/NADP IC50; 16 hrs preincubation with enzyme, 5 uM NADPH and 750 uM NADP
# From the text: The following describes the experimental procedures used to obtain data on column 6 of Table 5.
# The reaction is terminated by the addition of a second enzyme, diaphorase, and a corresponding substrate, resazurin. Diaphorase reduces resazurin to the highly fluorescent resorufin with the concomitant oxidation of NADPH to NADP, both halting the IDH2 reaction by depleting the available cofactor pool and facilitating quantitation of the amount of cofactor remaining after a specific time period through quantitative production of an easily detected fluorophore.
# The test compound is then incubated for 16 hrs at room temperature with the enzyme and cofactors before starting the IDH2 reaction with the addition of 10 μl of substrate mix containing 8 mM α-KG (final concentration 1.6 mM) in the buffer described above. After a further 1 hour of incubation at room temperature, the reaction is halted and the remaining NADPH measured through conversion of resazurin to resorufin by the addition of 25 μl Stop Mix (36 μg/ml diaphorase enzyme and 60 μM resazurin; in buffer).
# [11] = target: IDH1 wt/IDH1 R132C heterodimer (Homo sapiens (Human), UniProt O75874, R132C); test: In vitro assay for IDH1m R132C inhibitors, IDH1 wt/IDH1 R132C heterodimer, NADPH depletion (diaphorase/resazurin); type: biochemical; conditions: NADPH/NADP
# Protocol: The following describes the experimental procedures that can be used to obtain data on columns 2 and 4 of Table 4 and column 2 of Table 5.
# In the primary reaction, the reduction of α-KG acid to 2-HG is accompanied by a concomitant oxidation of NADPH to NADP. The amount of NADPH remaining at the end of the reaction time is measured in a secondary diaphorase/resazurin reaction in which the NADPH is consumed in a 1:1 molar ratio with the conversion of resazurin to the highly fluorescent resorufin.
# The mixture of compound, enzyme, and cofactor is pre-incubated at room temperature for 1 hr prior to the addition of alpha-ketoglutarate. To perform the secondary reaction, 10 uL of 1× buffer containing 36 μg/ml diaphorase and […] resazurin is added to the primary reaction and incubated for a further 5 minutes at 25° C. Florescence is read on a Spectramax platereader at Ex 544 Em 590. Compounds or compound dilutions are prepared in 100% DMSO concentration and diluted 1:50 into the final reaction. […] IC50s are determined.
# IDH1 or IDH2 wildtype (wt) and mutant heterodimers are expressed and purified by methods known in the art. For example, IDH1wt/R132m heterodimer is expressed and purified as follows. Co-expression of IDH1wt-his and IDH1R132C-flag is carried out in sf9 insect cells. Cells (25 g) are resuspended in 250 ml of 50 mM Tirs, 500 mM NaCl, pH7.4, at 4° C. with stirring. Cells are disrupted with 4 passes through an M-Y110 Micro fluidizer (Microfluidics) set to 500 psi, and then centrifuged at 22,000 rcf for 20 min at 4° C. The supernatant is harvested and loaded at 15 cm/h on a Histrap FF 5*1 ml column (GE) which is equilibrated with 50 mM Tirs, 500 mM NaCl, pH7.4. Host cell contaminants are removed by washing the column with equilibration buffer followed by equilibration buffer containing 20 mM imidazole and 60 mM imidazole to baseline. IDH1wt-his homodimer and IDH1wt-his/IDH1R132C-flag are eluted by equilibration buffer containing 250 mM imidazole. Fractions eluted by 250 mM imidazole are pooled together and loaded at 15 cm/h onto a column pre-packed with 10 ml ANTI-FLAG® M2 Affinity Gel (Sigma), the column is equilibrated with 50 mM Tris, 500 mM NaCl, pH7.4. After washing with equilibration buffer, IDH1wt-his/IDH1R132C-flag heterodimer is eluted by equilibration buffer containing flag peptide (0.2 mg/ml). Aliquots of IDH1wt-his/IDH1R132C-flag are flash frozen in liquid N2 and stored at −80° C. Same conditions are used for the purification of IDH1wt-his/IDH1R132H-flag.
# IDH1 wt/IDH1 R132H heterodimer, sequence (O75874 whole entry R132H): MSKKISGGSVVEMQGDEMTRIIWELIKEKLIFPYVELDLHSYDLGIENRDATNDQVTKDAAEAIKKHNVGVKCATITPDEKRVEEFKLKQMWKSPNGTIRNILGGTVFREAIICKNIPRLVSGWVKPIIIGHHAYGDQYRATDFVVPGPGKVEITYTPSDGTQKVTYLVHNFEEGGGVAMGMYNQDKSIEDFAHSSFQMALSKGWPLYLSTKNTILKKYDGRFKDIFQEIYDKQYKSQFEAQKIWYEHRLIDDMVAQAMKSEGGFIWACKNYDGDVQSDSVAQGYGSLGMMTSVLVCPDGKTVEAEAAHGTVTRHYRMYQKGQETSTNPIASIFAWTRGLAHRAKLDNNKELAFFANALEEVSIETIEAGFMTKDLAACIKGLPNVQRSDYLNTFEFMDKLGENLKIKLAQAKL
# IDH1 wt/IDH1 R132H heterodimer, sequence (O75874 whole entry, stated change not applied): as the sequence (O75874 whole entry R132H) above, with H132R counted along it
# IDH1-R132 homodimer enzyme (R132H), sequence (O75874 whole entry R132H): as the sequence (O75874 whole entry R132H) above
# IDH1-R132H homodimer enzyme, sequence (O75874 whole entry R132H): as above
# T1 sequence (P48735 40-452 R140Q): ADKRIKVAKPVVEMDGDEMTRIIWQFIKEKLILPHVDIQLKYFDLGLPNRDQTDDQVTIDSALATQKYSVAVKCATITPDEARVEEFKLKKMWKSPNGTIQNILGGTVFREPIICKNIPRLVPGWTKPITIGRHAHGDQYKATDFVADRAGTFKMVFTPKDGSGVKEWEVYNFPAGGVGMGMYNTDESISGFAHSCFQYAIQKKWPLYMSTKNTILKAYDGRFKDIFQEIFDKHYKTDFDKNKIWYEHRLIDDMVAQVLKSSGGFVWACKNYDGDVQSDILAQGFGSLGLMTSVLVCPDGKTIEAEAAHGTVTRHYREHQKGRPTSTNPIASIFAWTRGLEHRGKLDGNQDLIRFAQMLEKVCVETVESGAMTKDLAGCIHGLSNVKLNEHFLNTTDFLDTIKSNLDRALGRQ
# IDH1 wt/IDH1 R132C heterodimer, sequence (O75874 whole entry R132C): as the sequence (O75874 whole entry R132H) above, with H132C counted along it
# IDH1 wt/IDH1 R132C heterodimer, sequence (O75874 whole entry, stated change not applied): as the sequence (O75874 whole entry R132H) above, with H132R counted along it
# IDH1 R132C, sequence (O75874 whole entry R132C): as the sequence (O75874 whole entry R132H) above, with H132C counted along it
# IDH1-R132C homodimer enzyme, sequence (O75874 whole entry R132C): as the sequence (O75874 whole entry R132H) above, with H132C counted along it
Structure (SMILES),pIC50 [1],pIC50 [2],pIC50 [3],pIC50 [4],pIC50 [5],pIC50 [6],pIC50 [7],pIC50 [8],pIC50 [9],pIC50 [10],pIC50 [11]
N#CC1(c2cc(Nc3nc(N[C@@H]4CCC(F)(F)C4)nc(-c4cccc(C(F)(F)F)n4)n3)ccn2)CC1 [Compound 137],> 7.30,–,–,–,> 7.30,> 7.30,> 7.30,> 7.30,6.00 to 7.00,–,–
C[C@@H](Nc1nc(NC2C3CC4CC(C3)CC2C4)nc(-c2cccc(C(F)(F)F)n2)n1)C1CC1 (stereo partly drawn) [Compound 234],–,–,–,–,–,–,> 7.30,6.00 to 7.00,–,6.00 to 7.00,–
CC(COC(C)C)Nc1nc(N[C@H](C)C2CC2)nc(-c2cccc(C(F)(F)F)n2)n1 (stereo partly drawn) [Compound 241],–,–,–,–,–,–,> 7.30,6.00 to 7.00,–,7.00 to 7.30,6.00 to 7.00
C[C@@H](Nc1nc(NCC(C)(C)C#N)nc(-c2cccc(C(F)(F)F)n2)n1)C1CC1 [Compound 262],–,–,–,–,–,–,6.00 to 7.00,< 6.00,–,6.00 to 7.00,6.00 to 7.00
CC(C)(C#N)CNc1nc(Nc2ccnc(C(C)(F)F)c2)nc(-c2cccc(C(F)(F)F)n2)n1 [Compound 267],> 7.30,–,–,–,> 7.30,–,6.00 to 7.00,< 6.00,–,7.00 to 7.30,6.00 to 7.00
CC(CC#N)Nc1nc(NC(C)CC#N)nc(-c2cccc(Cl)n2)n1 (stereo not drawn) [Compound 271],–,–,–,–,–,–,6.00 to 7.00,6.00 to 7.00,–,6.00 to 7.00,6.00 to 7.00
CC(C)Nc1nc(Nc2ccnc(C(C)(F)F)c2)nc(-c2nccc(C(F)(F)F)n2)n1 [Compound 298],> 7.30,–,–,–,> 7.30,–,6.00 to 7.00,< 6.00,–,7.00 to 7.30,≤ 6.00
CC(C)(O)CNc1nc(Nc2cc(F)cc(F)c2)nc(-c2nccc(C(F)(F)F)n2)n1 [Compound 325],> 7.30,–,–,–,> 7.30,–,< 6.00,–,–,7.00 to 7.30,≤ 6.00

# The remaining lines, values ahead:
pIC50 [1],pIC50 [2],pIC50 [3],pIC50 [4],pIC50 [5],pIC50 [6],pIC50 [7],pIC50 [8],pIC50 [9],pIC50 [10],pIC50 [11],Structure (SMILES)
> 7.30,> 7.30,> 7.30,> 7.30,> 7.30,–,–,–,–,–,–,C[C@@H](Nc1nc(N[C@H](C)C2CC2)nc(-c2cccc(C(F)(F)F)n2)n1)C1CC1 [Compound 2]
–,7.00 to 7.30,6.00 to 7.00,7.00 to 7.30,> 7.30,–,–,–,–,–,–,C[C@@H](Nc1nc(N[C@H](C)C2CC2)nc(-c2cccc(O)c2)n1)C1CC1 [Compound 11]
–,> 7.30,> 7.30,> 7.30,> 7.30,–,–,–,–,–,–,FC1(F)CCC(Nc2nc(NC3CCC(F)(F)C3)nc(-c3cccc(C(F)(F)F)n3)n2)C1 (stereo not drawn) [Compound 31]
> 7.30,–,–,–,> 7.30,> 7.30,> 7.30,7.00 to 7.30,6.00 to 7.00,–,–,N#CC1(c2cc(Nc3nc(N[C@H]4CCC(F)(F)C4)nc(-c4cccc(C(F)(F)F)n4)n3)ccn2)CC1 [Compound 133]
7.00 to 7.30,–,–,–,7.00 to 7.30,–,7.00 to 7.30,6.00 to 7.00,–,> 7.30,7.00 to 7.30,C[C@@H](Nc1nc(NCCOc2ccccc2)nc(-c2cccc(C(F)(F)F)n2)n1)C1CC1 [Compound 246]
> 7.30,–,–,–,6.00 to 7.00,–,7.00 to 7.30,–,–,> 7.30,6.00 to 7.00,CC(C)(O)CNc1nc(Nc2cccc(Cl)c2)nc(-c2cccc(C(F)(F)F)n2)n1 [Compound 248]
–,–,–,–,–,–,6.00 to 7.00,< 6.00,–,6.00 to 7.00,6.00 to 7.00,FC1(F)CC2(CC(Nc3nc(NC4CC5(C4)CC(F)(F)C5)nc(-c4cccc(Cl)n4)n3)C2)C1 [Compound 265]
–,–,–,–,–,–,6.00 to 7.00,< 6.00,–,6.00 to 7.00,6.00 to 7.00,CC(C)(C)OC(=O)N1CCC(Nc2nc(NC3CCC(F)(F)CC3)nc(-c3cccc(C(F)(F)F)n3)n2)CC1 [Compound 274]
> 7.30,–,–,–,> 7.30,–,6.00 to 7.00,< 6.00,–,7.00 to 7.30,≤ 6.00,CC(C)(C)Nc1nc(Nc2ccnc(C(C)(F)F)c2)nc(-c2nccc(C(F)(F)F)n2)n1 [Compound 289]
–,–,–,–,–,–,7.00 to 7.30,–,–,> 7.30,–,C[C@@H](Nc1cc(NC2CCC(F)(F)CC2)nc(-c2cccc(Cl)n2)n1)C(F)(F)F [Compound 418]
